For 23 molecules, IC (total growth inhibition) and IC50 results are on record in patent US8975417B2, “Pyrazolopyrrolidine derivatives and their use in the treatment of disease” (Novartis AG, priority 2013, dated 2015).

As a reminder, the IC50 is the concentration needed to halve the response being measured.

Test [1] relates to THP-1 cells. As to the kind of experiment: Cell growth inhibition assay (CellTiter-Glo), THP-1. The note with it: Homo sapiens, read-out: THP-1 TGI. It is filed as cell-based. In a few lines:
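Compounds tested as 3-fold dilution series starting at 10 μM (DMSO 0.1% final); viability read by cellular ATP (CTG luminescence) at 37° C. Signal corrected for no-cell background and a day-0 plate, scaled −100% to 100%; four-parameter fitting gives IC50 and TGI.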
(In general: In ATP-based viability assays light output follows the ATP content of the culture.)

The target in test [2] is nuclear BRD4-NUT foci in HCC2494 NUT midline carcinoma cells (Homo sapiens (Human), UniProt O60885+Q86Y26). As to the kind of experiment: Nut-foci formation assay. Format: cell-based. The note with it: 24 hours, read-out: HCS Brd4-NUT IC50. The gist of the method: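 Read-out is number and intensity of nuclear NUT foci by immunofluorescence imaging, relative to 0.1% DMSO set as 100. Compounds were tested as 3-fold series starting at 10 μM on HCC2494 NUT midline carcinoma cells for 24 h. Four-parameter fitting gave IC50.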

As for `CCc1nn(-c2ccnn2C)c2c1C(c1ccc(Cl)cc1)N(c1cc(C)c(=O)n(C)c1)C2=O` (stereo not shown) [Example 89, 4-(4-chlorophenyl)-5-(1,5-dimethyl-6-oxo-1,6-dihydropyridin-3-yl)-3-ethyl-1-(1-methyl-1H-pyrazol-5-yl)-4,5-dihydropyrrolo[3,4-c]pyrazol-6(1H)-one], the IC (total growth inhibition) in test [1] amounted to 0.119 µM. Moreover, the IC50 in test [2] was 44.3 nM.

`Cc1nn(-c2ccnn2C)c2c1C(c1ccc(Cl)cc1)N(c1cc(C)c3nnc(C)n3c1)C2=O` (stereo not shown) [Example 90, 4-(4-chlorophenyl)-5-(3,8-dimethyl-[1,2,4]triazolo[4,3-a]pyridin-6-yl)-3-methyl-1-(1-methyl-1H-pyrazol-5-yl)-4,5-dihydropyrrolo[3,4-c]pyrazol-6(1H)-one]: in test [1], the IC (total growth inhibition) was determined as 0.115 µM. In addition, in test [2], the IC50 was 45 nM.

Regarding `Cc1cc(N2C(=O)c3nn(C4CC4)c(C)c3C2c2ccc(Cl)cc2)cn2c(C)nnc12` (stereo not shown) [Example 93, 4-(4-chlorophenyl)-2-cyclopropyl-5-(3,8-dimethyl-[1,2,4]triazolo[4,3-a]pyridin-6-yl)-3-methyl-4,5-dihydropyrrolo[3,4-c]pyrazol-6(2H)-one], the IC (total growth inhibition) in test [1] is 0.0518 µM. The half-inhibitory concentration (IC50) in test [2] was 17.9 nM.

Consider `Cc1nn(C2CCC2)c2c1C(c1ccc(Cl)cc1)N(c1cc(C)c(=O)n(C)c1)C2=O` (stereo not shown) [Example 94, 4-(4-chlorophenyl)-1-cyclobutyl-5-(1,5-dimethyl-6-oxo-1,6-dihydropyridin-3-yl)-3-methyl-4,5-dihydropyrrolo[3,4-c]pyrazol-6(1H)-one], for which the IC (total growth inhibition) in test [1] was 0.0765 µM. In addition, the IC50 in test [2] worked out at 21.9 nM.

Turning to `Cc1nn(C2CC2)c2c1C(c1ccc(OC(F)(F)F)cc1)N(c1cc(C)c(=O)n(C)c1)C2=O` (stereo not shown) [Example 95, 1-cyclopropyl-5-(1,5-dimethyl-6-oxo-1,6-dihydropyridin-3-yl)-3-methyl-4-(4-(trifluoromethoxy)phenyl)-4,5-dihydropyrrolo[3,4-c]pyrazol-6(1H)-one], the IC (total growth inhibition) in test [1] is 0.411 µM. In addition, the 50% inhibitory concentration (IC50) in test [2] stood at 191 nM.

With `Cc1nn(C2CC2)c2c1C(c1cccc(C(F)(F)F)c1)N(c1cc(C)c(=O)n(C)c1)C2=O` (stereo not shown) [Example 96, 1-cyclopropyl-5-(1,5-dimethyl-6-oxo-1,6-dihydropyridin-3-yl)-3-methyl-4-(3-(trifluoromethyl)phenyl)-4,5-dihydropyrrolo[3,4-c]pyrazol-6(1H)-one], in test [1], the IC (total growth inhibition) worked out at 2.55 µM. The 50% inhibitory concentration (IC50) in test [2] is 2010 nM.

Regarding `Cc1nn(C2CC2)c2c1C(c1ccc(C(F)(F)F)cc1)N(c1cc(C)c(=O)n(C)c1)C2=O` (stereo not shown) [Example 97, 1-cyclopropyl-5-(1,5-dimethyl-6-oxo-1,6-dihydropyridin-3-yl)-3-methyl-4-(4-(trifluoromethyl)phenyl)-4,5-dihydropyrrolo[3,4-c]pyrazol-6(1H)-one], the IC (total growth inhibition) in test [1] worked out at 0.274 µM. The concentration for half-maximal inhibition (IC50) in test [2] is 145 nM.

Regarding `COc1ncc(-n2nc(C)c3c2C(=O)N(c2cc(C)c(=O)n(C)c2)[C@H]3c2ccc(Cl)cc2)c(OC)n1` [Example 99, (S)-4-(4-chlorophenyl)-1-(2,4-dimethoxypyrimidin-5-yl)-5-(1,5-dimethyl-6-oxo-1,6-dihydropyridin-3-yl)-3-methyl-4,5-dihydropyrrolo[3,4-c]pyrazol-6(1H)-one], in test [1], the IC (total growth inhibition) is > 10 µM. For the same molecule, the concentration for half-maximal inhibition (IC50) in test [2] worked out at 8860 nM.

For `COc1ncc(-n2nc(C)c3c2C(=O)N(c2cc(C)c(=O)n(C)c2)[C@@H]3c2ccc(Cl)cc2)c(OC)n1` [Example 100, (R)-4-(4-chlorophenyl)-1-(2,4-dimethoxypyrimidin-5-yl)-5-(1,5-dimethyl-6-oxo-1,6-dihydropyridin-3-yl)-3-methyl-4,5-dihydropyrrolo[3,4-c]pyrazol-6(1H)-one], the IC (total growth inhibition) in test [1] came out at 0.153 µM. In test [2], the IC50 turned out to be 42.1 nM.

Consider `COc1ncccc1-n1nc(C)c2c1C(=O)N(c1cc(C)c3nnc(C)n3c1)C2c1ccc(Cl)cc1` (stereo not shown) [Example 101, 4-(4-chlorophenyl)-5-(3,8-dimethyl-[1,2,4]triazolo[4,3-a]pyridin-6-yl)-1-(2-methoxypyridin-3-yl)-3-methyl-4,5-dihydropyrrolo[3,4-c]pyrazol-6(1H)-one], for which the IC (total growth inhibition) in test [1] was 0.102 µM. In addition, in test [2], the IC50 was found to be 66.1 nM.

With `Cc1nn(C2CC2)c2c1C(c1ccc(Cl)cc1)N(c1ccc3nnn(C)c3n1)C2=O` (stereo not shown) [Example 102, 4-(4-chlorophenyl)-1-cyclopropyl-3-methyl-5-(3-methyl-3H-[1,2,3]triazolo[4,5-b]-pyridin-5-yl)-4,5-dihydropyrrolo[3,4-c]pyrazol-6(1H)-one], in test [1], the IC (total growth inhibition) was determined as 0.304 µM. The IC50 in test [2] stood at 230 nM.

In the case of `Cc1nn(C(C)C)c2c1[C@H](c1ccc(Cl)cc1)N(c1cc(C)c(=O)n(C)c1)C2=O` [Example 103, (S)-4-(4-chlorophenyl)-5-(1,5-dimethyl-6-oxo-1,6-dihydropyridin-3-yl)-1-isopropyl-3-methyl-4,5-dihydropyrrolo[3,4-c]pyrazol-6(1H)-one], in test [1], the IC (total growth inhibition) is > 10 µM. In addition, the IC50 in test [2] was > 10000 nM.

`Cc1nn(C(C)C)c2c1[C@@H](c1ccc(Cl)cc1)N(c1cc(C)c(=O)n(C)c1)C2=O` [Example 104, (R)-4-(4-chlorophenyl)-5-(1,5-dimethyl-6-oxo-1,6-dihydropyridin-3-yl)-1-isopropyl-3-methyl-4,5-dihydropyrrolo[3,4-c]pyrazol-6(1H)-one]: the IC (total growth inhibition) in test [1] was found to be 0.045 µM. Moreover, in test [2], the half-maximal inhibitory concentration (IC50) amounted to 11.3 nM.

As to `CCc1nn(C)c2c1C(c1ccc(Cl)cc1)N(c1cc(OC)c3nnc(C)n3c1)C2=O` (stereo not shown) [Example 105, 4-(4-chlorophenol)-3-ethyl-5-(8-methoxy-3-methyl-[1,2,4]triazolo[4,3-a]pyridin-6-yl)-1-methyl-4,5-dihydropyrrolo[3,4-c]pyrazol-6(1H)-one], the IC (total growth inhibition) in test [1] came out at 0.335 µM. For the same molecule, in test [2], the 50% inhibitory concentration (IC50) turned out to be 98.6 nM.

`CCc1nn(C2CC2)c2c1[C@H](c1ccc(Cl)cc1)N(c1cc(C)c3nnc(C)n3c1)C2=O` [Example 106, (S)-4-(4-chlorophenyl)-1-cyclopropyl-5-(3,8-dimethyl-[1,2,4]triazolo[4,3-a]pyridin-6-yl)-3-ethyl-4,5-dihydropyrrolo[3,4-c]pyrazol-6(1H)-one]: in test [1], the IC (total growth inhibition) was found to be 4.68 µM. Moreover, the 50% inhibitory concentration (IC50) in test [2] was 2240 nM.

As to `CCc1nn(C2CC2)c2c1[C@@H](c1ccc(Cl)cc1)N(c1cc(C)c3nnc(C)n3c1)C2=O` [Example 107, (R)-4-(4-chlorophenyl)-1-cyclopropyl-5-(3,8-dimethyl-[1,2,4]triazolo[4,3-a]pyridin-6-yl)-3-ethyl-4,5-dihydropyrrolo[3,4-c]pyrazol-6(1H)-one], in test [1], the IC (total growth inhibition) amounted to 0.0199 µM. In addition, the IC50 in test [2] amounted to 2.9 nM.

Turning to `CCc1nn(CCOCC(F)(F)F)c2c1C(c1ccc(Cl)cc1)N(c1cc(OC)c3nnc(C)n3c1)C2=O` (stereo not shown) [Example 108, 4-(4-chlorophenyl)-3-ethyl-5-(8-methoxy-3-methyl-[1,2,4]triazolo[4,3-a]pyridin-6-yl)-1-(2-(2,2,2-trifluoroethoxy)ethyl)-4,5-dihydropyrrolo[3,4-c]pyrazol-6(1H)-one], the IC (total growth inhibition) in test [1] was found to be 0.832 µM. The IC50 in test [2] was found to be 635 nM.

For `COc1ncccc1-n1nc(C)c2c1C(=O)N(c1cc(C)c3nnn(C)c3n1)C2c1ccc(Cl)cc1` (stereo not shown) [Example 109, 4-(4-chlorophenyl)-5-(3,7-dimethyl-3H-[1,2,3]triazolo[4,5-b]pyridin-5-yl)-1-(2-methoxypyridin-3-yl)-3-methyl-4,5-dihydropyrrolo[3,4-c]pyrazol-6(1H)-one], the IC (total growth inhibition) in test [1] stood at 0.0904 µM. Also, in test [2], the IC50 came to 43.8 nM.

`Cc1nn(C2CC2)c2c1C(c1ccc(Cl)cc1)N(c1cc(C)c3nnn(C)c3n1)C2=O` (stereo not shown) [Example 110, 4-(4-chlorophenyl)-1-cyclopropyl-5-(3,7-dimethyl-3H-[1,2,3]triazolo[4,5-b]pyridin-5-yl)-3-methyl-4,5-dihydropyrrolo[3,4-c]pyrazol-6(1H)-one]: in test [1], the IC (total growth inhibition) is 0.0198 µM. Moreover, in test [2], the IC50 was determined as 6.42 nM.

With `COc1ncccc1-n1nc(C)c2c1C(=O)N(c1cc(C)c3nnc(C)n3n1)C2c1ccc(Cl)cc1` (stereo not shown) [Example 111, 4-(4-chlorophenyl)-5-(3,8-dimethyl-[1,2,4]triazolo[4,3-b]pyridazin-6-yl)-1-(2-methoxypyridin-3-yl)-3-methyl-4,5-dihydropyrrolo[3,4-c]pyrazol-6(1H)-one], in test [1], the IC (total growth inhibition) amounted to 0.0484 µM. Besides, in test [2], the IC50 turned out to be 34.3 nM.

Regarding `Cc1nn(C2CC2)c2c1C(c1ccc(Cl)cc1)N(c1cc(N(C)C(=O)OC(C)(C)C)c3nnc(C)n3n1)C2=O` (stereo not shown) [Example 112, tert-butyl (6-(4-(4-chlorophenyl)-1-cyclopropyl-3-methyl-6-oxopyrrolo[3,4-c]pyrazol-5(1H,4H,6H)-yl)-3-methyl-[1,2,4]triazolo[4,3-b]pyridazin-8-yl)(methyl)carbamate], in test [1], the IC (total growth inhibition) worked out at 3.17 µM. Moreover, in test [2], the half-inhibitory concentration (IC50) is 3350 nM.

In the case of `Cc1nn(-c2ccnn2C)c2c1C(c1ccc(Cl)cc1)N(c1cc(C)c3nnc(C)n3n1)C2=O` (stereo not shown) [Example 114, 4-(4-chlorophenyl)-5-(3,8-dimethyl-[1,2,4]triazolo[4,3-b]pyridazin-6-yl)-3-methyl-1-(1-methyl-1H-pyrazol-5-yl)-4,5-dihydropyrrolo[3,4-c]pyrazol-6(1H)-one], the IC (total growth inhibition) in test [1] came out at 0.0765 µM. The IC50 in test [2] was determined as 23.2 nM.

In the case of `CCn1nc2c(c1C)C(c1ccc(Cl)cc1)N(c1cc(C)c3nnc(C)n3c1)C2=O` (stereo not shown) [Example 115, 4-(4-chlorophenyl)-5-(3,8-dimethyl-[1,2,4]triazolo[4,3-a]pyridin-6-yl)-2-ethyl-3-methyl-4,5-dihydropyrrolo[3,4-c]pyrazol-6(2H)-one], in test [1], the IC (total growth inhibition) is 0.0712 µM. In test [2], the 50% inhibitory concentration (IC50) worked out at 39.7 nM.
